Where no end group is shown, it is not given here.
Tested on: SKOV3 ovarian cancer xenografts
Assay: SKOV3 ovarian cancer xenograft, SorC13 with CAT chemotherapy (Example 26)
Format: in vivo, NOD/SCID mice
Details: day 12; SorC13 300 mg/kg i.p. Day 1 to 12
Description: SorC13 stock solutions were prepared by dissolving the appropriate amounts of the compound in physiologically buffered saline (pH 7.0 at 25° C.) to comprise a final solution to deliver 300 mg/Kg mouse. Stock solutions were prepared weekly, stored at −20° C. and diluted fresh each day for dosing. All solutions were filter sterilized with a 0.22 mu filter prior to further manipulation. The filter sterilizer units were pre-washed with a small volume of sterile distilled water. […]
To implant SKOV3 tumor cells into NOD/SCID mice, cell cultures were centrifuged to pellet the cells, the supernatant was aspirated, the cell pellet resuspended in 10 ml of growth media and the cell number was determined using a hemocytometer. […]
Tumor volumes (V) were calculated by caliper measurement using standard measurements of the width (W), length (L) and thickness (T) of tumors. […] Percentage ΔT/ΔC values, as a measure of efficacy, were determined where ΔC refers to change in volume of control or untreated tumor, and ΔT refers to change in volume of treated tumor.
Animals were intraperitoneally (i.p.) injected with the vehicular control, or the low, medium or high doses of CAT or CAT and SorC13. […] The tumor volume and body weights were measured every day. As well, general health of the animals was monitored every day.

Sequence: KEFLHPSKVDLPR [SorC13, KEFLHPSKVDLPR]
- % ΔT/ΔC (tumour volume normalized to control volume): 47.6%
- Mean tumor volume: 116.8 mm^3

Source: US10058587B2, “Peptide composition for cancer treatment by inhibiting TRPV6 calcium channel activity” (priority 2008, dated 2018)
